From PMC6100082, “Pyridine-Ureas as Potential Anticancer Agents: Synthesis and In Vitro Biological Evaluation” (Molecules : A Journal of Synthetic Chemistry and Natural …, 2018)
Read-outs that look alike come from different tables or passages of the source.

Key:
[1] = test system: breast cancer MCF-7 cell line; assay: In vitro anti-proliferative activity, MTT assay; assay type: cell-based, human; details: Homo sapiens, MCF-7, MTT
Method: The in vitro anti-proliferative activity of the newly prepared pyridine-ureas 8a–n was examined against breast cancer MCF-7 cell line. The assay was carried out, as triplicates, utilizing the 3-(4,5-dimethylthiazol-2-yl)-2,5-diphenyltetrazolium bromide (MTT) colorimetric assay as described by T. Mosmann. Doxorubicin and Sorafenib were included in this assay as a reference drug.
MCF-7 (human breast cancer cell line) and WI-38 (human lung fibroblast cell line), were obtained from American Type Culture Collection (Manassas, VA, USA). The cells were propagated in DMEM and supplemented with 10% heat-inactivated FBS (Hyclone), 10 μg/mL of insulin (Manufacturer, Sigma, St. Louis, MO, USA), and 1% penicillin-streptomycin. MTT assay was utilized to examine the in vitro anti-proliferative activity of the newly prepared ureas following the reported procedures. […] The data presented are the mean of at least three separate experiments.

SK-MEL-5 = assay: NCI one-dose SRB assay (Melanoma); assay type: cell-based, human; details: for inhibition at 10 µM: Homo sapiens, SK-MEL-5, 10 μM, read-out: Percentage growth inhibition (GI%); for Growth Percent: SK-MEL-5, 1.00E-5 Molar
In short: (§1)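 Human cancer cells are exposed for 48 h to one dose (10^−5 M) of test compound, then cell growth is measured by SRB protein assay. Data appear as GI%.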

UACC-62 = assay: NCI one-dose SRB assay (Melanoma); assay type: cell-based, human; details: for inhibition at 10 µM: Homo sapiens, UACC-62, 10 μM, read-out: Percentage growth inhibition (GI%); for Growth Percent: UACC-62, 1.00E-5 Molar
In short: as §1

SK-MEL-2 = assay: NCI one-dose SRB assay (Melanoma); assay type: cell-based, human; details: for inhibition at 10 µM: Homo sapiens, SK-MEL-2, 10 μM, read-out: Percentage growth inhibition (GI%); for Growth Percent: SK-MEL-2, 1.00E-5 Molar
In short: as §1

M14 = assay: NCI one-dose SRB assay (Melanoma); assay type: cell-based, human; details: for inhibition at 10 µM: Homo sapiens, M14, 10 μM, read-out: Percentage growth inhibition (GI%); for Growth Percent: M14, 1.00E-5 Molar
In short: as §1

MDA-MB-435 = assay: NCI one-dose SRB assay (Melanoma); assay type: cell-based, human; details: for inhibition at 10 µM: Homo sapiens, MDA-MB-435, 10 μM, read-out: Percentage growth inhibition (GI%); for Growth Percent: MDA-MB-435, 1.00E-5 Molar
In short: as §1

HCT-116 = assay: NCI one-dose SRB assay (Colon Cancer); assay type: cell-based, human; details: for Growth Percent: HCT-116, 1.00E-5 Molar; for inhibition at 10 µM: Homo sapiens, HCT-116, 10 μM, read-out: Percentage growth inhibition (GI%)
Method: (§2) The structures of all the newly prepared pyridine-ureas 8a–n were submitted to the National Cancer Institute (NCI) Developmental Therapeutic Program. Eight compounds 8b, 8d, 8e, 8i, 8j and 8l–n were selected to be examined for their in vitro growth inhibitory activity. The anticancer assays were carried out according to the protocol of the Drug Evaluation Branch, NCI, Bethesda. The selected pyridine-ureas were tested at one dose primary anticancer assay against a panel of approximately 58 cancer lines (concentration 10^−5 M). The tested human cancer cell lines emerged from nine different cancer subtypes: leukemia, colon, melanoma, ovarian, lung, CNS, renal, breast and prostate cancers. The sulforhodamine B (SRB) protein assay was adopted to estimate the cell viability and growth. The results were reported as mean-graph of the percentage growth of the treated cells, and presented as percentage growth inhibition (GI%) caused by the test compounds (Table 2).
(§3) The anticancer assays were performed in accordance with the protocol of the Drug Evaluation Branch, NCI, Bethesda. A 48 h drug exposure protocol was used and sulforhodamine B (SRB) protein assay was applied to estimate the cell viability and growth, as reported earlier.

HT29 = assay: NCI one-dose SRB assay (Colon Cancer); assay type: cell-based, human; details: for Growth Percent: HT29, 1.00E-5 Molar; for inhibition at 10 µM: Homo sapiens, HT-29, HT29, 10 μM, read-out: Percentage growth inhibition (GI%)
Method: as §2, §3

HCT-15 = assay: NCI one-dose SRB assay (Colon Cancer); assay type: cell-based, human; details: for Growth Percent: HCT-15, 1.00E-5 Molar; for inhibition at 10 µM: Homo sapiens, HCT-15, 10 μM, read-out: Percentage growth inhibition (GI%)
Method: as §2, §3

HCC-2998 = assay: NCI one-dose SRB assay (Colon Cancer); assay type: cell-based, human; details: for Growth Percent: HCC-2998, 1.00E-5 Molar; for inhibition at 10 µM: Homo sapiens, HCC-2998, 10 μM, read-out: Percentage growth inhibition (GI%)
Method: as §2, §3

SF-295 = assay: NCI one-dose SRB assay (CNS Cancer); assay type: cell-based, human; details: for inhibition at 10 µM: Homo sapiens, SF-295, 10 μM, read-out: Percentage growth inhibition (GI%); for Growth Percent: SF-295, 1.00E-5 Molar
Method: as §2, §3

SNB-19 = assay: NCI one-dose SRB assay (CNS Cancer); assay type: cell-based, human; details: for inhibition at 10 µM: Homo sapiens, SNB-19, 10 μM, read-out: Percentage growth inhibition (GI%); for Growth Percent: SNB-19, 1.00E-5 Molar
Method: as §2, §3

SF-268 = assay: NCI one-dose SRB assay (CNS Cancer); assay type: cell-based, human; details: for inhibition at 10 µM: Homo sapiens, SF-268, 10 μM, read-out: Percentage growth inhibition (GI%); for Growth Percent: SF-268, 1.00E-5 Molar
Method: as §2, §3

SNB-75 = assay: NCI one-dose SRB assay (CNS Cancer); assay type: cell-based, human; details: for inhibition at 10 µM: Homo sapiens, SNB-75, 10 μM, read-out: Percentage growth inhibition (GI%); for Growth Percent: SNB-75, 1.00E-5 Molar
Method: as §2, §3

SF-539 = assay: NCI one-dose SRB assay (CNS Cancer); assay type: cell-based, human; details: for inhibition at 10 µM: Homo sapiens, SF-539, 10 μM, read-out: Percentage growth inhibition (GI%); for Growth Percent: SF-539, 1.00E-5 Molar
Method: as §2, §3

U251 = assay: NCI one-dose SRB assay (CNS Cancer); assay type: cell-based, human; details: for inhibition at 10 µM: Homo sapiens, U-251, U251, 10 μM, read-out: Percentage growth inhibition (GI%); for Growth Percent: U251, 1.00E-5 Molar
Method: as §2, §3

BT-549 = assay: NCI one-dose SRB assay (Breast Cancer); assay type: cell-based, human; details: for Growth Percent: BT-549, 1.00E-5 Molar; for inhibition at 10 µM: Homo sapiens, BT-549, 10 μM, read-out: Percentage growth inhibition (GI%)
Method: as §2, §3

MDA-MB-468 = assay: NCI one-dose SRB assay (Breast Cancer); assay type: cell-based, human; details: for inhibition at 10 µM: Homo sapiens, MDA-MB-468, 10 μM, read-out: Percentage growth inhibition (GI%); for Growth Percent: MDA-MB-468, 1.00E-5 Molar
Method: as §2, §3

MCF7 = assay: NCI one-dose SRB assay (Breast Cancer); assay type: cell-based, human; details: for inhibition at 10 µM: Homo sapiens, MCF7, 10 μM, read-out: Percentage growth inhibition (GI%); for Growth Percent: MCF7, 1.00E-5 Molar
Method: as §2, §3

HS 578T = assay: NCI one-dose SRB assay (Breast Cancer); assay type: cell-based, human; details: for Growth Percent: 1.00E-5 Molar; for inhibition at 10 µM: Homo sapiens, read-out: Percentage growth inhibition (GI%)
Method: as §2, §3

MDA-MB-231 = assay: NCI one-dose SRB assay (Breast Cancer); assay type: cell-based, human; details: for inhibition at 10 µM: Homo sapiens, MDA-MB-231, 10 μM, read-out: Percentage growth inhibition (GI%); for Growth Percent: MDA-MB-231/ATCC, 1.00E-5 Molar
Method: as §2, §3

T-47D = assay: NCI one-dose SRB assay (Breast Cancer); assay type: cell-based, human; details: for Growth Percent: 1.00E-5 Molar; for inhibition at 10 µM: Homo sapiens, T47D, read-out: Percentage growth inhibition (GI%)
Method: as §2, §3

[2] = MCF7, 48 h, 48 h of incubation, read-out: IC50 48 h
[3] = MCF7, 72 h, 72 h of incubation, read-out: IC50 72 h

## COc1ccc(-c2ccc(NC(=O)Nc3cccc(C(F)(F)F)c3)c(C)n2)cc1OC [Compound 8i, 1-(6-(3,4-Dimethoxyphenyl)-2-methylpyridin-3-yl)-3-(3-(trifluoromethyl)phenyl) Urea]
[1]; [2]
  IC50: 6.19 ± 0.54 µM
[1]; [3]
  IC50: 5.8 ± 0.34 µM
other
  melting point: 235 to 237 °C
SK-MEL-5
  inhibition at 10 µM: 42%
  Growth Percent: 58.49%
UACC-62
  inhibition at 10 µM: 19%
  Growth Percent: 81.66%
SK-MEL-2
  inhibition at 10 µM: 27%
  Growth Percent: 73.78%
M14
  inhibition at 10 µM: 69%
  Growth Percent: 31.21%
MDA-MB-435
  inhibition at 10 µM: 27%
  Growth Percent: 73.17%
HCT-116
  Growth Percent: 17.63%
  inhibition at 10 µM: 83%
HT29
  Growth Percent: 59.96%
  inhibition at 10 µM: 41%
HCT-15
  Growth Percent: 48.77%
  inhibition at 10 µM: 52%
HCC-2998
  Growth Percent: 84.39%
  inhibition at 10 µM: 16%
SF-295
  inhibition at 10 µM: 35%
  Growth Percent: 65.28%
SNB-19
  inhibition at 10 µM: 22%
  Growth Percent: 78.84%
SF-268
  inhibition at 10 µM: 25%
  Growth Percent: 75.96%
SNB-75
  inhibition at 10 µM: 34%
  Growth Percent: 66.71%
SF-539
  inhibition at 10 µM: 23%
  Growth Percent: 77.24%
U251
  inhibition at 10 µM: 37%
  Growth Percent: 63.88%
BT-549
  Growth Percent: 71.52%
  inhibition at 10 µM: 29%
MDA-MB-468
  inhibition at 10 µM: 51%
  Growth Percent: 49.56%
MCF7
  inhibition at 10 µM: 38%
  Growth Percent: 62.46%
HS 578T
  Growth Percent: 74.54%
  inhibition at 10 µM: 26%
MDA-MB-231
  inhibition at 10 µM: 31%
  Growth Percent: 69.50%
T-47D
  Growth Percent: 53.57%
  inhibition at 10 µM: 47%

## COc1ccc(-c2ccc(NC(=O)Nc3ccc(Cl)cc3)c(C)n2)cc1 [Compound 8d, 1-(4-Chlorophenyl)-3-(6-(4-methoxyphenyl)-2-methylpyridin-3-yl) Urea]
[1]; [2]
  IC50: 7.1 ± 0.38 µM
[1]; [3]
  IC50: 5.14 ± 0.46 µM
other
  melting point: 231 to 232 °C
SK-MEL-5
  inhibition at 10 µM: 13%
  Growth Percent: 87.05%
UACC-62
  inhibition at 10 µM: 29%
  Growth Percent: 71.19%
SK-MEL-2
  inhibition at 10 µM: < 10%
  Growth Percent: 104.03%
M14
  inhibition at 10 µM: 14%
  Growth Percent: 86.55%
MDA-MB-435
  inhibition at 10 µM: 12%
  Growth Percent: 88.00%
HCT-116
  Growth Percent: 76.10%
  inhibition at 10 µM: 24%
HT29
  Growth Percent: 85.13%
  inhibition at 10 µM: 15%
HCT-15
  Growth Percent: 85.74%
  inhibition at 10 µM: 15%
HCC-2998
  Growth Percent: 104.24%
  inhibition at 10 µM: < 10%
SF-295
  inhibition at 10 µM: < 10%
  Growth Percent: 97.10%
SNB-19
  inhibition at 10 µM: < 10%
  Growth Percent: 94.20%
SF-268
  inhibition at 10 µM: < 10%
  Growth Percent: 96.43%
SNB-75
  inhibition at 10 µM: 16%
  Growth Percent: 84.87%
SF-539
  inhibition at 10 µM: 16%
  Growth Percent: 84.16%
U251
  inhibition at 10 µM: 24%
  Growth Percent: 76.51%
BT-549
  Growth Percent: 96.71%
  inhibition at 10 µM: < 10%
MDA-MB-468
  inhibition at 10 µM: < 10%
  Growth Percent: 91.54%
MCF7
  inhibition at 10 µM: 26%
  Growth Percent: 74.74%
HS 578T
  Growth Percent: 98.36%
  inhibition at 10 µM: < 10%
MDA-MB-231
  inhibition at 10 µM: < 10%
  Growth Percent: 97.34%
T-47D
  Growth Percent: 72.90%
  inhibition at 10 µM: 28%
